Measurements reported in patent US7312339B2, “Polyene oxazoles and processes for their preparation” (Thallion Pharmaceuticals Inc., priority 2003, dated 2007).

What was measured:
[1] = tested on: MDA-MD-231 (breast/human); experiment: In vitro cytotoxicity (MTT cell survival), MDA-MD-231; format: cell-based; conditions: MDA-MD-231, 96 h exposure; for IC50: Homo sapiens, mean from 3 independent experiments
Experimental: (§1) Cells were passaged two to three times per week. Cellular viability was examined by staining with trypan blue and only flasks where cell viability was >95% were used to determine cytotxicity.
(§2) Exponentially growing cells (1-3×10^3 cells per 100 μl) were seeded in 96-well plates and incubated for 16 h. Cells were then exposed continuously to various concentrations of compounds of Formula I in serum-supplemented medium. Cell survival was evaluated 96 h later by replacing the culture media with 150 μl fresh medium containing 10 mM 4-(2-hydroxyethyl)-1-piperazineethanesulfonic acid buffer, pH 7.4. Next, 50 μl of 2.5 mg/ml of 3-(4,5-dimethylthiazo-2-yl)-2,5-diphenyltetrazolium bromide (MTT; Sigma, St. Louis, Mo.) in phosphate buffer solution, pH 7.4, was added. After 3-4 h of incubation at 37° C., the medium and MTT was removed, and 200 μl of dimethylsulfoxide was added to dissolve the precipitate of reduced MTT followed by addition of 25 μl glycine buffer (0.1 M glycine plus 0.1 M NaCl, pH 10.5). The absorbance was determined at 570 nm with a microplate reader (BIORAD). Cell survival was estimated as % of cells treated with the vehicle alone.

[2] = tested on: HCT116 (colon/human); experiment: In vitro cytotoxicity (MTT cell survival), HCT116; format: cell-based; conditions: for In Vitro Cytotoxicity Data (Log M): HCT116, 96 h exposure; for IC50: Homo sapiens, HCT-116, HCT116, 96 h exposure, mean from 3 independent experiments
Experimental: as §1, §2

[3] = tested on: PC3 (prostate/human); experiment: In vitro cytotoxicity (MTT cell survival), PC3; format: cell-based; conditions: PC3, 96 h exposure; for IC50: Homo sapiens, mean from 3 independent experiments
Experimental: as §1, §2

[4] = tested on: A498 (renal/human); experiment: In vitro cytotoxicity (MTT cell survival), A498; format: cell-based; conditions: A498, 96 h exposure; for IC50: Homo sapiens, mean from 3 independent experiments
Experimental: as §1, §2

[5] = tested on: P388 (leukemia/mouse); experiment: In vitro cytotoxicity (MTT cell survival), P388; format: cell-based; conditions: P388, 96 h exposure; for IC50: Mus musculus
Experimental: as §1, §2

[6] = tested on: EKVX (lung/human); experiment: In vitro cytotoxicity (MTT cell survival), EKVX; format: cell-based; conditions: 96 h exposure; for IC50: Homo sapiens
Experimental: as §1, §2

[7] = tested on: B16 (melanoma/mouse); experiment: In vitro cytotoxicity (MTT cell survival), B16; format: cell-based; conditions: B16, 96 h exposure; for IC50: Mus musculus
Experimental: as §1, §2

[8] = tested on: T24 (bladder/human); experiment: In vitro cytotoxicity (MTT cell survival), T24; format: cell-based; conditions: T24, 96 h exposure; for IC50: Homo sapiens
Experimental: as §1, §2

[9] = tested on: SF-295 (glioblastoma/human); experiment: In vitro cytotoxicity (MTT cell survival), SF-295; format: cell-based; conditions: SF-295, 96 h exposure; for IC50: Homo sapiens
Experimental: as §1, §2

[10] = In vitro cytotoxicity (MTT cell survival), HRE; format: cell-based, human; conditions: human, HRE normal renal cells, 96 h exposure
Experimental: as §1, §2

[11] = tested on: HRE (renal/normal, human); experiment: In vitro cytotoxicity (MTT cell survival), HRE; format: cell-based; conditions: HRE normal renal cells, 96 h exposure
Experimental: as §1, §2

Compound	IC50 [1]	In Vitro Cytotoxicity Data (Log M) [1]	In Vitro Cytotoxicity Data (Log M) [2]	IC50 [2]	IC50 [3]	In Vitro Cytotoxicity Data (Log M) [3]	In Vitro Cytotoxicity Data (Log M) [4]	IC50 [4]	IC50 [5]	In Vitro Cytotoxicity Data (Log M) [5]	In Vitro Cytotoxicity Data (Log M) [6]	IC50 [6]	In Vitro Cytotoxicity Data (Log M) [7]	IC50 [7]	IC50 [8]	In Vitro Cytotoxicity Data (Log M) [8]	IC50 [9]	In Vitro Cytotoxicity Data (Log M) [9]	IC50 at 96 h [10]	In Vitro Cytotoxicity Data (Log M) [11]
COC(=O)C(C(C)OC)N(C)C(=O)C1(N(O)C(=O)/C=C/C=C/C=C/C=C\CNC(=O)C(C)(C)C(O)\C(C)=C/C=C\C=C\Cc2cnco2)COCO1 (stereo not shown) [Compound 1]	12.9 µM	(Log −4.88 M) Log M	(Log −4.60 M) Log M	24.8 µM	20.7 µM	(Log −4.69 M) Log M	(Log −4.78 M) Log M	15.6 µM	6.3 µM	(Log −5.19 M) Log M	(Log −4.42 M) Log M	37.4 µM	(Log −4.34 M) Log M	44.8 µM	30.5 µM	(Log −4.51 M) Log M	27.1 µM	(Log −4.56 M) Log M	8.8 µM	(Log −5.05 M) Log M
COC(=O)C(C(C)OC)N(C)C(=O)C1(N(O)C(=O)/C=C/C=C/C=C/C=C\CNC(=O)C(C)(C)C(O)\C(C)=C/C=C\C=C\Cc2cnc(C)o2)COCO1 (stereo not shown) [Compound 2]	13.2 µM	(Log −4.88 M) Log M	(Log −4.56 M) Log M	27.5 µM	20.7 µM	(Log −4.67 M) Log M	(Log −4.88 M) Log M	13.1 µM	8.1 µM	(Log −5.05 M) Log M	(Log −4.62 M) Log M	23.9 µM	(Log −4.34 M) Log M	45.5 µM	18.9 µM	(Log −4.72 M) Log M	17.5 µM	(Log −4.75 M) Log M	20.2 µM	(Log −4.69 M) Log M
